The record followed here is ChEMBL document CHEMBL5696442, “Discovery of type II inhibitors of TGFβ-activated kinase 1 (TAK1) and mitogen-activated protein kinase kinase kinase kinase 2 (MAP4K2)” (J Med Chem, 2015).

Active and inactive are the calls of the source. The rule behind the calls is not given here.

Assay [1] concerns the target Phosphatidylinositol 4-kinase beta (Homo sapiens) (UniProt Q9UBF8). Kind of assay: Inhibition of PIK4CB (unknown origin) at 1 uM by Ambit Kinomescan binding assay relative to control; values are per cent of control.
Assay [2] has as its target Serine/threonine-protein kinase 38-like (Homo sapiens) (UniProt Q9Y2H1). Nature of the assay: Inhibition of NDR2 Lys1 labeling site harbouring DTGHIYAMKILR in human A-375 cells at 5 uM by KiNativ Profiling analysis relative to control. The assay is classed as cell-based.
Assay [3] concerns the target Fibroblast growth factor receptor 3 (Homo sapiens) (UniProt P22607). Nature of the assay: Inhibition of FGFR3 (unknown origin) at 1 uM by Ambit Kinomescan binding assay relative to control; values are per cent of control.
Assay [4] concerns the target Phosphatidylinositol 4,5-bisphosphate 3-kinase catalytic subunit gamma isoform (Homo sapiens) (UniProt P48736). Kind of assay: Inhibition of PIK3CG (unknown origin) at 1 uM by Ambit Kinomescan binding assay relative to control; values are per cent of control.
Assay [5] addresses Serine/threonine-protein kinase 38-like (Homo sapiens) (UniProt Q9Y2H1). Kind of assay: Inhibition of NDR2 Lys1 labeling site harbouring KDTGHIYAMKILR in human A-375 cells at 5 uM by KiNativ Profiling analysis relative to control. The assay is classed as cell-based.
The subject of the next assay is RAW. Nature of the assay: Inhibition of LPS induced p38 phosphorylation in mouse RAW cells preincubated for 1 hr followed by LPS stimulation and measured after 30 mins by Western blot analysis. The assay is classed as functional, cell-based. Particulars: dose 0.01-10 µM.
Assay [6] has as its target Tyrosine-protein kinase Fes/Fps (Homo sapiens, UniProt P07332). Nature of the assay: Inhibition of FES K1 labeling site in human Huh-7 cells at 10 uM by KiNativ Profiling analysis relative to control. It is filed as cell-based.
Assay [7] addresses T1, Inhibitor of nuclear factor kappa-B kinase subunit epsilon (Homo sapiens) (UniProt Q14164).
T1 sequence (whole entry): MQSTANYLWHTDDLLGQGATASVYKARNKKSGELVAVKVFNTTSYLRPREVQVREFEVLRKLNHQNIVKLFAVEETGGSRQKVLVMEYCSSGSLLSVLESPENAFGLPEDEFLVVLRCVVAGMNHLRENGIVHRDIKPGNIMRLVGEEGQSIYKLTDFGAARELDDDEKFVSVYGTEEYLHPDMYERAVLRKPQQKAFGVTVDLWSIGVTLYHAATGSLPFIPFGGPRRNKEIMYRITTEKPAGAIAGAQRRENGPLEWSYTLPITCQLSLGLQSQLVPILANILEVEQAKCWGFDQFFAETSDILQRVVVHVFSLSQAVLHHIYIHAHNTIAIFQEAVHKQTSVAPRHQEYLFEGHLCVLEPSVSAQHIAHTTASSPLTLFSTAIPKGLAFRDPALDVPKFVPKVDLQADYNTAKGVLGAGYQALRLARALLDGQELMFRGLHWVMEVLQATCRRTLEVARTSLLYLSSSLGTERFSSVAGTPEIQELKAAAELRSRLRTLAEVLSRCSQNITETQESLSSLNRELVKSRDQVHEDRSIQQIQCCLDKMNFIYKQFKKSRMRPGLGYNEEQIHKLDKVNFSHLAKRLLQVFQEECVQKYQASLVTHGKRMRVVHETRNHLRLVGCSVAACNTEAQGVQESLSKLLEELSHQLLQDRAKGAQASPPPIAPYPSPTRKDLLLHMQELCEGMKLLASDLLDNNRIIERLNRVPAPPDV
Kind of assay: Inhibition of IKKe K2 labeling site in human Huh-7 cells at 10 uM by KiNativ Profiling analysis relative to control. The assay is classed as cell-based.

In assay [8] the target is Bone morphogenetic protein receptor type-2 (Homo sapiens) (UniProt Q13873). Kind of assay: Inhibition of BMPR2 (unknown origin) at 10 uM by Ambit Kinomescan binding assay.
Sequence of Bone morphogenetic protein receptor type-2 (Homo sapiens) (Q13873 whole entry): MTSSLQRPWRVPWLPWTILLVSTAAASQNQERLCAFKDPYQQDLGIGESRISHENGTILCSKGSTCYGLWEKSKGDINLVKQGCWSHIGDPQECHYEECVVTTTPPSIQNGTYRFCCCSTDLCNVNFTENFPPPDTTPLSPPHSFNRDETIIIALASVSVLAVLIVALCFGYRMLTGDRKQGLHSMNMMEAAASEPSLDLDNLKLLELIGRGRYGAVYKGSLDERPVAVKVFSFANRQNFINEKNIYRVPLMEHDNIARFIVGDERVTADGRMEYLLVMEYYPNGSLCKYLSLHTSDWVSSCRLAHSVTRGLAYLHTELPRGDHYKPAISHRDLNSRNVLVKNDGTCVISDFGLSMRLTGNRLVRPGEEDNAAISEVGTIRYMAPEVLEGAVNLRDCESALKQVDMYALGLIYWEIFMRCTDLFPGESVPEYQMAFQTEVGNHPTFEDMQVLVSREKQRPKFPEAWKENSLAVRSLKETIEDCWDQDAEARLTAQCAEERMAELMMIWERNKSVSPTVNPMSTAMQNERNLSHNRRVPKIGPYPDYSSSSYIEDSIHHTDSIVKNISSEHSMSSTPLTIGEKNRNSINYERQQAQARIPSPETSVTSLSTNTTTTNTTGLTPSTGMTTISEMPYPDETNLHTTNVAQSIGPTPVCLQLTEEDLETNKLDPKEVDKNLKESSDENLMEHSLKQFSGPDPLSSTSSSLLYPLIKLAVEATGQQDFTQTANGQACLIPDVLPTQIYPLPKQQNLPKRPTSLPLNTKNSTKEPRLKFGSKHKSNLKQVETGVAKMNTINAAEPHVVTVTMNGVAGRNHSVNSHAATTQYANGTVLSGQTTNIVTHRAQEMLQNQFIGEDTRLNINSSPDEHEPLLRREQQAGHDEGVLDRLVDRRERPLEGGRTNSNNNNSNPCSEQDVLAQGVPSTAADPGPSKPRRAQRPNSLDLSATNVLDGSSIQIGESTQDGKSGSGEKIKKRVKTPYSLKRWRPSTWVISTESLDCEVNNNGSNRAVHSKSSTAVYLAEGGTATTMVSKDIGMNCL
In assay [9] the target is STE20/SPS1-related proline-alanine-rich protein kinase (Homo sapiens) (UniProt Q9UEW8). Nature of the assay: Inhibition of STLK3 Lys2 labeling site in human Huh-7 cell lysate at 1 uM by KiNativ Profiling analysis relative to control. It is filed as subcellular.
Assay [10] addresses T2, Scaffold protein ILK (Homo sapiens) (UniProt Q13418).
T2 sequence (whole entry): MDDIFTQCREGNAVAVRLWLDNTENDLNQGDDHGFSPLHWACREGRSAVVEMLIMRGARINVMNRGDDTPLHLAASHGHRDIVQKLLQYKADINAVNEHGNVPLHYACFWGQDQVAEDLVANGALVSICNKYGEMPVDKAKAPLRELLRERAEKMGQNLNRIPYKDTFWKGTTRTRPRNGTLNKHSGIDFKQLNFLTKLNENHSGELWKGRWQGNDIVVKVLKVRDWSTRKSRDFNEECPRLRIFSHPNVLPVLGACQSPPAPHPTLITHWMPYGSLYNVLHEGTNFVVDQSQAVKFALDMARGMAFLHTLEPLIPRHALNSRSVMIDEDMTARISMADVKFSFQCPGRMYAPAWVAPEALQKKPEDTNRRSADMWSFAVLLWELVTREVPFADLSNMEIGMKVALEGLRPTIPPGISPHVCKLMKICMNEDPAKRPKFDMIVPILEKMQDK
Kind of assay: Inhibition of ILK Lys1 labeling site in human Huh-7 cells at 1 uM by KiNativ Profiling analysis relative to control. It is filed as cell-based.

Assay [11] concerns the target Serine/threonine-protein kinase VRK2 (Homo sapiens) (UniProt Q86Y07). Kind of assay: Inhibition of VRK2 Lys2 labeling site in human Huh-7 cells at 1 uM by KiNativ Profiling analysis relative to control. The assay is classed as cell-based.

Sequence of Serine/threonine-protein kinase 38-like (Homo sapiens) (Q9Y2H1 2-464 limits assumed): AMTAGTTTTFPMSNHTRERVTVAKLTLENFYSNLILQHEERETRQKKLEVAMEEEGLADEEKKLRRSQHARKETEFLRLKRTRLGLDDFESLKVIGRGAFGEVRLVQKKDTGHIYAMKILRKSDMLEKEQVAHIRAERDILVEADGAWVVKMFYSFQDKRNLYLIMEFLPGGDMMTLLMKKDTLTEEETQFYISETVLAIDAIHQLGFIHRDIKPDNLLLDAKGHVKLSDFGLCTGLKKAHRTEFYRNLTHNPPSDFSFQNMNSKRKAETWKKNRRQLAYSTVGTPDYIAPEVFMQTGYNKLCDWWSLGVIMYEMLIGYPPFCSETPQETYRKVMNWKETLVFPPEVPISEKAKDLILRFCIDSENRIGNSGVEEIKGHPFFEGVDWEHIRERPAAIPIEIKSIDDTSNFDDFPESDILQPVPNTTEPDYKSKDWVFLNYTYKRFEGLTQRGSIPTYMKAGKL
Sequence of Serine/threonine-protein kinase VRK2 (Homo sapiens) (Q86Y07 whole entry): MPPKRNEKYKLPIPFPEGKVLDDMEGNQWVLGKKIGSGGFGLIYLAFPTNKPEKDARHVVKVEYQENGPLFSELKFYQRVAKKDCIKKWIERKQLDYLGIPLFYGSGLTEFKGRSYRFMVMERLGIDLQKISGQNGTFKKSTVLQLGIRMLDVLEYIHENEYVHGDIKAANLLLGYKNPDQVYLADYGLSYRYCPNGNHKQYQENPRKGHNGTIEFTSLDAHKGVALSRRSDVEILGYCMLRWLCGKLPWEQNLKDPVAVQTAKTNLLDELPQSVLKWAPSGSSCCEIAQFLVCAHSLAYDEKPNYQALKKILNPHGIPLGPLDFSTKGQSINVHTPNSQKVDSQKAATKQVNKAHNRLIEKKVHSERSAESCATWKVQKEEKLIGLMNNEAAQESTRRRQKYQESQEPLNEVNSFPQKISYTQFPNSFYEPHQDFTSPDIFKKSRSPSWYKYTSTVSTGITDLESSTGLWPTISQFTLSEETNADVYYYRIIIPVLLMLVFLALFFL
Sequence of Fibroblast growth factor receptor 3 (Homo sapiens) (P22607 23-806 limits assumed): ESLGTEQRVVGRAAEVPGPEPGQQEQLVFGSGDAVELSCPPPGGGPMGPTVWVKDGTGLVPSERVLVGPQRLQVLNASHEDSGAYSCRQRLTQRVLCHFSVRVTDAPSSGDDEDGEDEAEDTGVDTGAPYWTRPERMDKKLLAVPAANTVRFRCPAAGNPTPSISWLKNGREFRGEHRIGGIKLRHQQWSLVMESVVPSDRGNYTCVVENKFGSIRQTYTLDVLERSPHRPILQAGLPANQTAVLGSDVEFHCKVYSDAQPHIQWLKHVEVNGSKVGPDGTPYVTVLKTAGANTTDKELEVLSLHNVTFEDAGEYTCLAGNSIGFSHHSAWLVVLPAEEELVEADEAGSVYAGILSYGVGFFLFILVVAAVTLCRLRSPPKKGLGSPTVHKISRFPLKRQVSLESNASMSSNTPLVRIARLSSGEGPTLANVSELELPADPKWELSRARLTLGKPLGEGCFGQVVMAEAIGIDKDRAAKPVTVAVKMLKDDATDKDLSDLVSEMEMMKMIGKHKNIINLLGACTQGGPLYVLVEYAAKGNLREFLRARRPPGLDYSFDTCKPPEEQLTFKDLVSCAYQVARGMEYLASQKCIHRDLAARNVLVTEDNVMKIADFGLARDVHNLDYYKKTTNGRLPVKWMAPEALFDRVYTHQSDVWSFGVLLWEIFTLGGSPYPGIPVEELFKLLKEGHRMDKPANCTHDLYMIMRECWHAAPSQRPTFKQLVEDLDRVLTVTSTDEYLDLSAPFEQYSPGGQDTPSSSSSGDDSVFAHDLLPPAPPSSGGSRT
Sequence of Tyrosine-protein kinase Fes/Fps (P07332 whole entry): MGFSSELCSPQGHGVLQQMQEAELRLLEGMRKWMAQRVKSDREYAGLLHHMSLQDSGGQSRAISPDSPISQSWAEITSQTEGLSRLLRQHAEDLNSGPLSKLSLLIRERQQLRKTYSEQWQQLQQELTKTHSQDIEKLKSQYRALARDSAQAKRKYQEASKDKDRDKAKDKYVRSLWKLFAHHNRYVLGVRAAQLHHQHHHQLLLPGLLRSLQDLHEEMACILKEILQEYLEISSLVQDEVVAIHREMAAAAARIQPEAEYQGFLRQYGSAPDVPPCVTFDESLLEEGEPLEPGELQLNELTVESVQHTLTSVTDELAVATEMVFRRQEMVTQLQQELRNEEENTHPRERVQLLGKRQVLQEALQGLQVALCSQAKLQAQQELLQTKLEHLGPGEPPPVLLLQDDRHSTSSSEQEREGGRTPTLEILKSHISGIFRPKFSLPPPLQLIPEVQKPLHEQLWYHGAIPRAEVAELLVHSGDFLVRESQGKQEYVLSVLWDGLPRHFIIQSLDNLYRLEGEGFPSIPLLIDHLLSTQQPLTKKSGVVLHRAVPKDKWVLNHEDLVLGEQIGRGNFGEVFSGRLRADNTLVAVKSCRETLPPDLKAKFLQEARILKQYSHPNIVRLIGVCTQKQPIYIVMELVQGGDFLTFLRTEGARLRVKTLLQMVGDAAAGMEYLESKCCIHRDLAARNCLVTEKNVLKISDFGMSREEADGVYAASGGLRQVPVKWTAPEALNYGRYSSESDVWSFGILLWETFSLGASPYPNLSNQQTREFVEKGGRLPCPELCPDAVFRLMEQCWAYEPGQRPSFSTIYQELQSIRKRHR
Sequence of Phosphatidylinositol 4,5-bisphosphate 3-kinase catalytic subunit gamma isoform (Homo sapiens) (P48736 whole entry, looked up, canonical isoform): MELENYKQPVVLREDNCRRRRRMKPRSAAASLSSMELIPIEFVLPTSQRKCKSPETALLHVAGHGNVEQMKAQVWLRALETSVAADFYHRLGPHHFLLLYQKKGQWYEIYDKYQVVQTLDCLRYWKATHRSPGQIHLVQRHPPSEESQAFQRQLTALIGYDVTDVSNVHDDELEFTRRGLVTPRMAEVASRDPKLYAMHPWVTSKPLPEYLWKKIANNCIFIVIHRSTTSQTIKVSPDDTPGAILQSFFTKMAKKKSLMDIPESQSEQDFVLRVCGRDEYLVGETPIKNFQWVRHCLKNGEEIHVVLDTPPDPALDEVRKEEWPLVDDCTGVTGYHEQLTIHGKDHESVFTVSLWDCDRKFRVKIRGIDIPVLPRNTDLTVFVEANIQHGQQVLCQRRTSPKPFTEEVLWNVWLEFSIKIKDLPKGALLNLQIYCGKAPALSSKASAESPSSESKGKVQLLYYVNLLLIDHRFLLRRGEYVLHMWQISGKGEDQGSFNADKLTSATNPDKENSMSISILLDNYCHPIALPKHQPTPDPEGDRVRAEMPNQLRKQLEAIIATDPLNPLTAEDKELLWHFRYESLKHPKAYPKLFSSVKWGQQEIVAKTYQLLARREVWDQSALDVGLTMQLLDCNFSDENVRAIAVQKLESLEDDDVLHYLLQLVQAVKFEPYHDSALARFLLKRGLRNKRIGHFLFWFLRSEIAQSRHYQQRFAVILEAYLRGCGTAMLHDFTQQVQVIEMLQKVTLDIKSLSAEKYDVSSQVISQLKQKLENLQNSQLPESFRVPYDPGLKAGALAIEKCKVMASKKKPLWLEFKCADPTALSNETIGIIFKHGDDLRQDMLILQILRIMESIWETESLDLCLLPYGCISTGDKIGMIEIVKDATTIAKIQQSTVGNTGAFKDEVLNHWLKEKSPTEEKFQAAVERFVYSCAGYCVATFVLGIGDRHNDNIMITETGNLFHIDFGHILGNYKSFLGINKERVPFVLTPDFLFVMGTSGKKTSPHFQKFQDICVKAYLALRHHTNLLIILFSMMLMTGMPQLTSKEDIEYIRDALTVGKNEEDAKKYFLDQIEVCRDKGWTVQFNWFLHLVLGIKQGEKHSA

The term residual activity denotes the share of the control activity or signal that is left under treatment. Read a low residual activity as a large loss of activity. The term inhibition denotes the change of the read-out against control, counted positive when it falls. For the compound `CCN1CCN(Cc2ccc(NC(=O)c3ccc(C)c(/C=C/c4cnc5[nH]ccc5c4OC)c3)cc2C(F)(F)F)CC1`, the results for the residual activity in assay [1], in assay [3] and in [4] were 100%, 13% and 100%, respectively. In addition, the inhibition was found to be 20.7% in assay [2] and 14.8% in assay [5].

For the compound `CCN1CCN(Cc2ccc(NC(=O)c3ccc(C)c(Oc4ccnc5[nH]ccc45)c3)cc2C(F)(F)F)CC1`, the inhibition entry in the assay on RAW is “Dose-Dependent Effect”; in assay [6], 72.6%; in [7], 8.4%. For the same compound, in assay [8], the inhibition entry is “inactive”.

In the case of `CNc1cc(Oc2cc(C(=O)Nc3cc(N4CCN(C)CC4)cc(C(F)(F)F)c3)ccc2C)ncn1`, the inhibition in assay [9] was 9.8%; in [10], -6.7%; in [11], 40.4%.
